Data on 2 compounds can be found in patent US20240327364A1, “THERAPEUTIC TARGETING OF GPR68 TO INDUCE FERROPTOSIS” (University Of Maryland, Baltimore, priority 2023, published 2024).

One experiment concerns the target T1, LATS1 (Homo sapiens, UniProt O95835).
T1 construct: purchased DiscoveRx
Put plainly: KinomeScan. It counts as binding. To be noted: read-out: % Control.

The next experiment has as its target CSF1R (Homo sapiens, UniProt P07333). Description: KinomeScan. The experiment is classed as binding. To be noted: read-out: % Control.
The target in the next experiment is T2, AKT2 (Homo sapiens, UniProt P31751).
T2 construct: purchased DiscoveRx (Fremont, CA)
Description: KinomeScan. To be noted: read-out: % Control. The experiment is classed as binding.

For the next experiment, the target named is T3, PLK2 (Homo sapiens, UniProt Q9NYY3).
T3 construct: purchased DiscoveRx (Fremont, CA)
Put plainly: KinomeScan. It counts as binding. Particulars: read-out: % Control.

In a further experiment the target is T4, PRKCQ (Homo sapiens, UniProt Q04759).
T4 construct: purchased DiscoveRx (Fremont, CA)
T4 sequence (Q04759 whole entry): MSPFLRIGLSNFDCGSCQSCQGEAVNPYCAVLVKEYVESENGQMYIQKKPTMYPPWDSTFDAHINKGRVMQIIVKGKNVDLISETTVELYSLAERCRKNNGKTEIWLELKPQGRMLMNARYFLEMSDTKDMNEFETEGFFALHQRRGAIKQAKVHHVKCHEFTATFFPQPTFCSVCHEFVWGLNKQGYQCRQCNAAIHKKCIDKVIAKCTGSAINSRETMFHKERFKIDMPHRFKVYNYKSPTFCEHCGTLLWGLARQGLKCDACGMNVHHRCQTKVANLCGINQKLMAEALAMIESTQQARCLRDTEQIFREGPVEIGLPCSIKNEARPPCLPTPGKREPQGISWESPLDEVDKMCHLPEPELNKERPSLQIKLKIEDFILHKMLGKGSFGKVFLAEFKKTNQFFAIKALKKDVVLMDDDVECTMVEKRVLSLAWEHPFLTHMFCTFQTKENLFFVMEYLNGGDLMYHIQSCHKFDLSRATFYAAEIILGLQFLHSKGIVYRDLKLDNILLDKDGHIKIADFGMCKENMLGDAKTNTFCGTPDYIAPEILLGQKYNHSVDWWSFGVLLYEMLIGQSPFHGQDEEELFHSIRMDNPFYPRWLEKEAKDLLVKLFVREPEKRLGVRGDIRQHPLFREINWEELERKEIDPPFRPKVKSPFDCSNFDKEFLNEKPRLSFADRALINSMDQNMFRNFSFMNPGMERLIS
Description: KinomeScan. Particulars: read-out: % Control. It counts as binding.

The next experiment has as its target T5, p38-alpha (Homo sapiens, UniProt Q16539).
T5 construct: purchased DiscoveRx
Description: KinomeScan. It counts as binding. Particulars: read-out: % Control.

For a further experiment, the target named is T6, ADRB2 (Homo sapiens, UniProt P07550).
T6 construct: host or cells: Chem-1 cells with promiscuous Gα15
T6 sequence (P07550 whole entry, species assumed): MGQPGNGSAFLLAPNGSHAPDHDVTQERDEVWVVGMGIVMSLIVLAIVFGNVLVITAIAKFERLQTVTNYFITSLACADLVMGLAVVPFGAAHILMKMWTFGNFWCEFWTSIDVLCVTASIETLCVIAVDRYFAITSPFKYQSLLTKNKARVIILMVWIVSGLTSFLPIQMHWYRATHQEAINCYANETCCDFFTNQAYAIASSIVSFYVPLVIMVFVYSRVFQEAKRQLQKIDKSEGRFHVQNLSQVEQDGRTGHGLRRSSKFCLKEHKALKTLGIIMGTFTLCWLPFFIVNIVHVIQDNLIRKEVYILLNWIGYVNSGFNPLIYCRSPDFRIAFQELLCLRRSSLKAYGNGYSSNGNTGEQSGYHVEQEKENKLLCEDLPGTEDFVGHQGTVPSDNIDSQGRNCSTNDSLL
Put plainly: GPCR Profiler. It counts as cell-based.

A further experiment has as its target T7, GPR39 (Homo sapiens, UniProt O43194).
T7 construct: host or cells: Chem-1 cells expressing Gα15
Put plainly: GPCR Profiler. It counts as cell-based.

In experiment [1] the target is T8, ABL1(F317L)-nonphosphorylated (Homo sapiens, UniProt P00519, F317L).
T8 construct: purchased DiscoveRx
Put plainly: KinomeScan. The experiment is classed as binding. To be noted: read-out: % Control.

A further experiment deals with T9, VEGFR2 (Homo sapiens, UniProt P35968).
T9 construct: purchased DiscoveRx
Put plainly: KinomeScan. It counts as binding. Particulars: read-out: % Control.

For a further experiment, the target named is T10, BLK (Homo sapiens, UniProt P51451).
T10 construct: purchased DiscoveRx (Fremont, CA)
T10 sequence (P51451 whole entry): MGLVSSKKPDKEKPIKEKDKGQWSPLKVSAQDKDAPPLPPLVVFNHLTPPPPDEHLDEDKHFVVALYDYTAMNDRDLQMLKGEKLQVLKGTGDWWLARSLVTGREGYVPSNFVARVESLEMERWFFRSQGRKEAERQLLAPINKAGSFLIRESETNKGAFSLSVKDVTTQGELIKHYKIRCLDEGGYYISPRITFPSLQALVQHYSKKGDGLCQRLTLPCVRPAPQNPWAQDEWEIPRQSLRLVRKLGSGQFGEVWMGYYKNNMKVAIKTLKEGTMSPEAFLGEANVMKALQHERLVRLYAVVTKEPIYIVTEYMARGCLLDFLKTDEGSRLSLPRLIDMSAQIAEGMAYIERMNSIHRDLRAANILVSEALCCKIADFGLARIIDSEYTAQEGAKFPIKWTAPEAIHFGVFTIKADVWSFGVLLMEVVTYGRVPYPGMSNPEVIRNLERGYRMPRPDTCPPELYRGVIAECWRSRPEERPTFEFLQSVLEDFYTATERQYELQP
Put plainly: KinomeScan. It counts as binding. To be noted: read-out: % Control.

Experiment [2] has as its target T11, ABL1(E255K)-phosphorylated (Homo sapiens, UniProt P00519, E255K).
T11 construct: purchased DiscoveRx
Description: KinomeScan. The experiment is classed as binding. To be noted: read-out: % Control.

The next experiment addresses T12, EGFR(T790M) (Homo sapiens, UniProt P00533, T790M).
T12 construct: purchased DiscoveRx (Fremont, CA)
Description: KinomeScan. The experiment is classed as binding. Particulars: read-out: % Control.

The target in the next experiment is CSNK1G3 (Homo sapiens, UniProt Q9Y6M4). Put plainly: KinomeScan. It counts as binding. To be noted: read-out: % Control.
A further experiment has as its target T13, PIK3C2B (Homo sapiens, UniProt O00750).
T13 construct: purchased DiscoveRx (Fremont, CA)
Put plainly: KinomeScan. The experiment is classed as binding. To be noted: read-out: % Control.

A further experiment has as its target T14, p38-delta (Homo sapiens, UniProt O15264).
T14 construct: purchased DiscoveRx
Put plainly: KinomeScan. It counts as binding. To be noted: read-out: % Control.

The target in a further experiment is T15, KIT(D816H) (Homo sapiens, UniProt P10721, D816H).
T15 construct: purchased DiscoveRx
Description: KinomeScan. Particulars: read-out: % Control. It counts as binding.

Another experiment deals with T16, SIK (Homo sapiens, UniProt P57059).
T16 construct: purchased DiscoveRx (Fremont, CA)
Put plainly: KinomeScan. Particulars: read-out: % Control. The experiment is classed as binding.

The target in the next experiment is T17, GPR109A (Homo sapiens, UniProt Q8TDS4).
T17 construct: host or cells: Chem-1 cells expressing Gα15
T17 sequence (Q8TDS4 whole entry): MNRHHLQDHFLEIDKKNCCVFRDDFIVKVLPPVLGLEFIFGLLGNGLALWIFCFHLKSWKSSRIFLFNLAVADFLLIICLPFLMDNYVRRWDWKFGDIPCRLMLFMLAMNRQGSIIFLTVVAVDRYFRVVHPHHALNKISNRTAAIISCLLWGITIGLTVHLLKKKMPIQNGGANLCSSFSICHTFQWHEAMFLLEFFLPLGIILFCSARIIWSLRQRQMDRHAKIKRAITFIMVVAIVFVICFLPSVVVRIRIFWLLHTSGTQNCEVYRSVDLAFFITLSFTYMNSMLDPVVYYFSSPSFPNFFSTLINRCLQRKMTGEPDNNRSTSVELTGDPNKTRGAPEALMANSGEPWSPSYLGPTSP
Put plainly: GPCR Profiler. The experiment is classed as cell-based.

The target in a further experiment is GPR68 (Homo sapiens, UniProt Q15743). Put plainly: SRE-luciferase assay, GPR68-transfected HEK293 cells. It counts as cell-based. Particulars: 10 μM OGM2. On the procedure: 12-well plates of cells were transfected with 1 μg DNA using Lipofectamine 3000 with sre:luciferase and either the vector backbone, GFP, GPR68, GPR68-GFP, GPR4, or 336X-GFP. After 3 days, these cells were then lysed, and cell extracts were subjected to Steady-Glo luciferase assay (Promega™) according to the manufacturer's instructions. The results were normalized to cell titer, as determined using Cell Titer-Glo luminescence assay (Promega™). For some procedure, the cells were treated in serum-free medium, and were lysed on the third day.
GPR68, sequence (Q15743 whole entry): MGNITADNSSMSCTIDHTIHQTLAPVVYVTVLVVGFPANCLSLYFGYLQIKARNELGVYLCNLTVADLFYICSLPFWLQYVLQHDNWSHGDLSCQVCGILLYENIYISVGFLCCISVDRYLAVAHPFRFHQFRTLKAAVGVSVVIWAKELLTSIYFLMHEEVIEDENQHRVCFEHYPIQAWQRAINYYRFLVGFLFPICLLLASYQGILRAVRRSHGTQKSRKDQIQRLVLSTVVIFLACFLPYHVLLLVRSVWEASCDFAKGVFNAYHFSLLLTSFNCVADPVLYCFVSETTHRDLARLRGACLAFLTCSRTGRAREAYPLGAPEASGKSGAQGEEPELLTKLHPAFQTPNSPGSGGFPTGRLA
Because GPR4, the paralog with highest homology with GPR68, was not covered in the initial GPCR profiling, whether OGM2 could inhibit GPR4 was tested by examining the effects of OGM2 on acid-induced serum responsive element (SRE) luciferase activity in HEK293 cells transfected with either GPR4 or GPR68. Mild acidification increased luciferase activity in GPR4 and GPR68 transfected cells above that of vector control.
Cas9^GPR68=GPR68 targeted sgRNA and Cas9; CTL=control; MoGPR68=GPR68 morpholino treatment. […] These cells were exposed to acidic media and assayed for luciferase activity as a readout of the receptor activity.

Another experiment concerns A549. Description: Crystal violet viability, 24 hours. The experiment is classed as cell-based. As for the experimental part: A549 lung cancer cells were plated at different concentrations of cell per well in a 96-well plate. On the following day cells were treated with increasing doses of OGM2. Twenty-four hours later cells viability was assayed with crystal violet and normalized to untreated.

T7 sequence (O43194 whole entry): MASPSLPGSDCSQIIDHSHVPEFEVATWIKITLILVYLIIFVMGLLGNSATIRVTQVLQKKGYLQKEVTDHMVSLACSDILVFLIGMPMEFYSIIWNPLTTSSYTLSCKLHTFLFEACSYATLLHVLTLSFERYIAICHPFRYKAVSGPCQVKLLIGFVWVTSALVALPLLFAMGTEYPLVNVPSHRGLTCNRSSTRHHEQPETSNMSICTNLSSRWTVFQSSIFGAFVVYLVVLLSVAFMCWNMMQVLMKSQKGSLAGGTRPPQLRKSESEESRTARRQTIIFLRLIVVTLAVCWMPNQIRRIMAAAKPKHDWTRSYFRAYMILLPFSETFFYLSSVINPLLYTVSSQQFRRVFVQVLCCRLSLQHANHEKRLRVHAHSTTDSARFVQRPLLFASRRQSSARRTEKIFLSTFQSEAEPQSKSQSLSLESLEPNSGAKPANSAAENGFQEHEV
CSF1R, sequence (P07333 20-972): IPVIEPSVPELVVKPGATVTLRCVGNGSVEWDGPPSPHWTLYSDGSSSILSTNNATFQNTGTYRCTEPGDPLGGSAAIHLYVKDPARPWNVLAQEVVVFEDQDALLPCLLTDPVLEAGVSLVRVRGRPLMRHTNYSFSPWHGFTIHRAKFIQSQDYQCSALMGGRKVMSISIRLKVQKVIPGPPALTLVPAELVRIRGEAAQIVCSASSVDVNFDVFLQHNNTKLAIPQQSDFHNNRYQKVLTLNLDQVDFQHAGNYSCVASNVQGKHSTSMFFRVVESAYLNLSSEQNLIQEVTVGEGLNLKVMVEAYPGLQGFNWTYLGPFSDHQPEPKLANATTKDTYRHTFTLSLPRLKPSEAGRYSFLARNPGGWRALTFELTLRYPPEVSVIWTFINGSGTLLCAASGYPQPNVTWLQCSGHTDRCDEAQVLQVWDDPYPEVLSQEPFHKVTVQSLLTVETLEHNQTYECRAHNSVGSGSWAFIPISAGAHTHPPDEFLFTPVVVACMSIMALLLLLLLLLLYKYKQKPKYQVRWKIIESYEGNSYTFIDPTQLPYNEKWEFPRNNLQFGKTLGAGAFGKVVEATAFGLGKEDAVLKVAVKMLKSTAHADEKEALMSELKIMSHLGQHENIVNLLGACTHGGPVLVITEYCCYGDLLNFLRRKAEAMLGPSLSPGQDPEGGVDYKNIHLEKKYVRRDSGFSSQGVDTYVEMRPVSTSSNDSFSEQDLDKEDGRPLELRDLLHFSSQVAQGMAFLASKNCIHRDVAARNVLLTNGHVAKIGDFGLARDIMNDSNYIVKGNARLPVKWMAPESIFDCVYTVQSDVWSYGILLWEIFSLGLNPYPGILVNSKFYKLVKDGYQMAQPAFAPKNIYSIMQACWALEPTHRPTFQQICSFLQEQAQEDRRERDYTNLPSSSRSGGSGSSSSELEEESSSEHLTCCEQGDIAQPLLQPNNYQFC
T1 sequence (O95835 whole entry): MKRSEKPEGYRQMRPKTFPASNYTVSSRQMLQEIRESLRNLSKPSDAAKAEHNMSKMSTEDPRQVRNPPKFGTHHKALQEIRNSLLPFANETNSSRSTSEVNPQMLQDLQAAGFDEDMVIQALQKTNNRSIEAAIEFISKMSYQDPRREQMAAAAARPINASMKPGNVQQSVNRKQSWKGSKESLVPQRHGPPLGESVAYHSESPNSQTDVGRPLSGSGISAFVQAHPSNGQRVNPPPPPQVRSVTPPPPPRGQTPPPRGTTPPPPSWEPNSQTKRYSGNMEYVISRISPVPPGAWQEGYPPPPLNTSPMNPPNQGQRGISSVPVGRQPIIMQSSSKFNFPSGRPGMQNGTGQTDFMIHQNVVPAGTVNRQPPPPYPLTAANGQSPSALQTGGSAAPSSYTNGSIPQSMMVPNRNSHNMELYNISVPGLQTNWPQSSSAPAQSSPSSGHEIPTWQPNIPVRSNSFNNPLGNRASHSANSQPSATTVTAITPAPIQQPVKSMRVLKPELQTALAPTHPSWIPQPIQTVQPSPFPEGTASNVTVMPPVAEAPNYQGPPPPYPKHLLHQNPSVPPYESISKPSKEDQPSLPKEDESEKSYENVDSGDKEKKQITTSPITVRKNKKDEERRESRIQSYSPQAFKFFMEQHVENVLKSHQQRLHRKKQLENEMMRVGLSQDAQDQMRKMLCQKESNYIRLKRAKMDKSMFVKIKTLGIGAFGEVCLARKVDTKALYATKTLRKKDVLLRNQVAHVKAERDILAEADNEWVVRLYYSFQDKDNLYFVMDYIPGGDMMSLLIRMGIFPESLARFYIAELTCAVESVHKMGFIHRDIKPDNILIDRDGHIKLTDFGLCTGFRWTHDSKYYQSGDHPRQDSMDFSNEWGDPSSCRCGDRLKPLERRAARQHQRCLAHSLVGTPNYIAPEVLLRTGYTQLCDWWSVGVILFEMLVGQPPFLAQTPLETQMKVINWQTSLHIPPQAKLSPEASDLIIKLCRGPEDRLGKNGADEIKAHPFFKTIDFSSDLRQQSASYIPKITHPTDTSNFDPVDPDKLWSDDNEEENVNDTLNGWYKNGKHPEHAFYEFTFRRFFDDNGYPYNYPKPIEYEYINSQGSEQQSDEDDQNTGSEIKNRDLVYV

Consider `CCc1ccc2c(c1)C1(NN=C(c3cccc4ccccc34)S1)C(=O)N2` (stereo not drawn) [OGM1, 5-ethyl-5′-naphthalen-1-ylspiro[1H-indole-3,2′-3H-1,3,4-thiadiazole]-2-one], for which the remaining binding at 10 µM was 100% at LATS1; 78% at CSF1R; 93% at AKT2; 100% on PLK2; 99% at PRKCQ; 54% on p38-alpha. Further, the remaining binding at 10 µM in experiment [1] was found to be 96%; at VEGFR2 it was 100%; at BLK, 97%; in experiment [2], 77%; at EGFR(T790M) it was 74%; at CSNK1G3, 100%. The remaining binding at 10 µM was found to be 95% on PIK3C2B, 81% on p38-delta, 97% on KIT(D816H) and 95% on SIK. Besides, the Antagonism at ADRB2 (10 uM) is listed as −9.5; on GPR39 (10 uM), 5.4; at GPR109A (10 uM), 20.3. Also, the Agonism is listed as −0.1 at ADRB2 (12.5 uM), 0 on GPR39 (12.5 uM) and −0.2 at GPR109A (12.5 uM).

For the compound `CCc1ccc2c(c1)C1(NN=C(c3ccccc3)S1)C(=O)N2` (stereo not drawn) [OGM2], the “acid-induced SRE-luciferase activity” value on GPR68 is recorded as “completely inhibited the signal”. In addition, in the experiment with A549, the toxicity entry is given as “relatively High doses of OGM2 are necessary for toxicity in A549 cells”.
